What was measured:
Assay type in all cases: in vivo
[1] = test system: Nephotettix cincticeps (green leaf hopper); assay: Activity against Nephotettix cincticeps (green leaf hopper), % mortality; conditions: for activity against Nephotettix cincticeps (green leaf hoppers), in words: compound by itself
Source text: In experiments on activity against Nephotettix spp. (rice leaf hoppers), for example, Nephotettix cincticeps (green leaf hopper), carried out on representative compounds of the first preferred embodiment, the following results (wherein ppm indicates the concentration of the compound in parts per million of the test solution applied) have been obtained, as shown in Table 7: […]

[2] = test system: Nilaparvata lugens (brown planthoppers); assay: Activity against Nilaparvata lugens (brown planthoppers); conditions: compound by itself
[3] = test system: Cnaphalocrocis medinalis (rice leaf rollers); assay: Activity against Cnaphalocrocis medinalis (rice leaf rollers); conditions: compound by itself

Which “activity against Nephotettix cincticeps (green leaf hoppers), in words” value (“activity against Nephotettix cincticeps” for short) [1] does the source give for `CC[S+]([O-])c1c(C#N)nn(-c2c(Cl)cc(C(F)(F)F)cc2Cl)c1N` (stereo not drawn) [Ethiprole, ethiprole] here?
Its value is “some activity by itself”.

What about the “activity against Nilaparvata lugens (brown planthoppers), in words” value (from here on “activity against Nilaparvata lugens”) [2] of the same compound?
The value was “shows activity”.

What about the “activity against Cnaphalocrocis medinalis (rice leaf rollers), in words” value (from here on “activity … (rice leaf rollers), in words”) [3] of the same compound?
Its value is “not particularly active”.

With `COC(=O)N(C(=O)N1COC2(C(=O)OC)Cc3cc(Cl)ccc3C2=N1)c1ccc(OC(F)(F)F)cc1` (stereo not drawn) [Indoxacarb, indoxacarb] as the compound, how does the mortality at 6.25 ppm ([1]; Nephotettix cincticeps, Indoxacarb 6.25 ppm alone (Ethiprole 0 ppm)) read?
The mortality at 6.25 ppm was 0%.

What about the mortality at 12.5 ppm ([1]; Nephotettix cincticeps, Indoxacarb 12.5 ppm alone (Ethiprole 0 ppm)) of the same compound?
Its mortality at 12.5 ppm is 16.2%.

What about the mortality at 25 ppm ([1]; Nephotettix cincticeps, Indoxacarb 25 ppm alone (Ethiprole 0 ppm)) of the same compound?
The mortality at 25 ppm was 38%.

And the “activity against Nephotettix cincticeps” value [1]?
The value was “some activity by itself”.

And the “activity against Nephotettix cincticeps” value ([1]; listed as indoxacarb)?
Its value is “active”.

What about the “activity against Nilaparvata lugens” value [2] of the same compound?
The value was “not particularly active”.

And the “activity against Nilaparvata lugens” value ([2]; listed as indoxacarb)?
The value was “not particularly effective”.

What about the “activity … (rice leaf rollers), in words” value [3] of the same compound?
Its value is “very active”.

And the “activity … (rice leaf rollers), in words” value ([3]; listed as indoxacarb)?
The value was “active”.
